Earlier results, collected in patent US7473804B2, “Polymorphs of atomoxetine hydrochloride” (Teva Pharmaceutical Fine Chemicals s.r.l., priority 2004, dated 2009).

Conditions: as disclosed in U.S. Pat. No. 4,018,895, EP 0 052 492, EP 0 721 777

CNCC[C@@H](Oc1ccccc1C)c1ccccc1 [Atomoxetine, (R)(−)-N-methyl-3-(2-methylphenoxy)-3-phenylpropylamine]
effectiveness relative to the (+)-enantiomer: about nine times more effective than the (+)-enantiomer
effectiveness relative to the racemic mixture (tomoxetine): about twice as effective as the racemic mixture
